Drawing on patent US7449478B2, “Indole compounds” (National Health Research Institutes, priority 2003, dated 2008), this text covers PPAR agonist activity for one compound.

In the experiment the test system is PPAR. Description: PPAR agonist activity / binding to PPAR, tetraethylthiuram disulfide alone or combined. The following applies: tetraethylthiuram disulfide alone.

Consider `CCN(CC)C(=S)SSC(=S)N(CC)CC` [tetraethylthiuram disulfide], for which the PPAR agonist activity result is “poor PPAR agonist”.
